Data set [1] has as its target T1, human, citrated, platelet-rich plasma (Homo sapiens, UniProt P05106+P08514).
T1 construct: aggregating human, citrated, platelet-rich plasma; endogenous in cells; host or cells: human platelets in citrated platelet-rich plasma
The data set is described as follows: Test (a): inhibition of ADP stimulated platelet aggregation (Born). The settings on record: ADP induced aggregation of human platelet-rich plasma. It counts as cell-based. The procedure, abridged: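 pA2 calculated by comparing ADP EC50-type (50% response) values in presence and absence of compound, averaged across concentrations (generally 10-^5 M to 10-^10 M). Aggregation (Born) induced by ADP in citrated human platelet-rich plasma, giving dose-response curves.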

The target in data set [2] is T2, purified human platelet fibrinogen receptor (GPIIb/IIIa) (Homo sapiens, UniProt P05106+P08514).
T2 construct: is isolated from human platelet lysates; from tissue
T2 sequence (P08514 32-887 limits assumed): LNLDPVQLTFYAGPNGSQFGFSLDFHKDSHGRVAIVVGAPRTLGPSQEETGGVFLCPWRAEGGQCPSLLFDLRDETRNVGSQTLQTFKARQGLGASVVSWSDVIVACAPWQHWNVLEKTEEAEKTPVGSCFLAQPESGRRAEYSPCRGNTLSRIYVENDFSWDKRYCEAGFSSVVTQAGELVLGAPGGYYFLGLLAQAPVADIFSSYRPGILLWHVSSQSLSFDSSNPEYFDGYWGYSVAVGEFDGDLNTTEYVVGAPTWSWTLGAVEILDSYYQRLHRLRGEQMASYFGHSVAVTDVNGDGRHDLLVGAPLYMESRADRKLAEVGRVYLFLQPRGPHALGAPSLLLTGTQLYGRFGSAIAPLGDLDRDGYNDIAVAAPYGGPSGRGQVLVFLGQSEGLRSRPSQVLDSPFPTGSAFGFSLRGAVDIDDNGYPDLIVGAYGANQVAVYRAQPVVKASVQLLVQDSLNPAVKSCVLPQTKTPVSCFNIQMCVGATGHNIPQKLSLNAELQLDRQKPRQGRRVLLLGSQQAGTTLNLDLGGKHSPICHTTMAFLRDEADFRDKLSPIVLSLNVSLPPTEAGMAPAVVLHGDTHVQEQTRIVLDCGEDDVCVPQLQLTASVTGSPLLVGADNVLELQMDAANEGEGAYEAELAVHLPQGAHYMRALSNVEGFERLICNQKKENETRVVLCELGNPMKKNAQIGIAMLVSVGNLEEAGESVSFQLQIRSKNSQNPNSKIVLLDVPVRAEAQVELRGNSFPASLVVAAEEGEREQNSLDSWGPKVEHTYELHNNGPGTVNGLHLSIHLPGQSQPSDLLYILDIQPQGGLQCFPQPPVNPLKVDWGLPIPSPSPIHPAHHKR
T2 sequence (P08514 891-1039 limits assumed): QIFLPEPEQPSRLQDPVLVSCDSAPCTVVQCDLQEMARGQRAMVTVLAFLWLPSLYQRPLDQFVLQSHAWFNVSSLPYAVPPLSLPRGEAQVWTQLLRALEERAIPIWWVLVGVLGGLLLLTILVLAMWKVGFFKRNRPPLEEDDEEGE
T2 sequence (P05106 27-788): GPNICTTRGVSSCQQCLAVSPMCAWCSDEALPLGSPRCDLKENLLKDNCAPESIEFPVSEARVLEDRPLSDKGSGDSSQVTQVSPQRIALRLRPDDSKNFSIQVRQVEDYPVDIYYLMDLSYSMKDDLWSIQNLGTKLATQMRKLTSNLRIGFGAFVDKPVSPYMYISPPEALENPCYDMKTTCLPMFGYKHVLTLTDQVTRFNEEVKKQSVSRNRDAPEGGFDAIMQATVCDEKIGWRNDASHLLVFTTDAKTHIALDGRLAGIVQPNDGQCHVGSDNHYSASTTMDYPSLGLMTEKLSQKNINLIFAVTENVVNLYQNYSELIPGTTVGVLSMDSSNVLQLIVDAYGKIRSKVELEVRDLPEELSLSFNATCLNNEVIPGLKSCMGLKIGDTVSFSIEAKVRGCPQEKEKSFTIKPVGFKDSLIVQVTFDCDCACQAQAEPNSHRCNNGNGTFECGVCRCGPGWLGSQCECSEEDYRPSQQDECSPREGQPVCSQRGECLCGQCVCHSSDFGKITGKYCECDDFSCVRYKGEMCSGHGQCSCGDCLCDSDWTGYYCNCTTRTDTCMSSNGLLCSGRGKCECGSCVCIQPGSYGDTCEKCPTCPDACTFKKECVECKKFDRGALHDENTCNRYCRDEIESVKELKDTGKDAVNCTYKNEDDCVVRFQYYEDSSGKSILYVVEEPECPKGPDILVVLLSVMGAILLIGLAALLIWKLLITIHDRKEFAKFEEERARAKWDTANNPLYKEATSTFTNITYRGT
The data set is described as follows: Test (b): GPIIb/IIIa ELISA, inhibition of biotinylated fibrinogen binding. The settings on record: purified human platelet GPIIb/IIIa, ELISA. Put shortly:
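Inhibition of biotinylated fibrinogen ([…]) binding to immobilised human platelet fibrinogen receptor, purified by KYGRGDS peptide affinity chromatography, was measured after 2 h at 30 °C. Readout: streptavidin–biotin-HRP colour with TMB at […]; value expressed as pIC50.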

Data set [3] has as its system aggregation of human blood platelets. Briefly: Test (a) modified to assess activity on oral administration (ex vivo). The class given is in vivo, dog. As to conditions: dogs, 5 mg/kg. The method, then:
Test (a) may be modified so as to assess the effects of a test compound ex vivo on the aggregation of human blood platelets after administration of the test compound to a laboratory animal, such as a rat, rabbit, guinea pig, mouse or dog. For example, groups of four male, fasted Alderley Park Wistar rats are orally dosed with a test compound or appropriate vehicle, and at suitable time intervals (1,3,5 and 8 hours after dosing) animals are anaesthetised with fluothane and bled by heart puncture. Blood is collected into 3.2% citrate (1 part to 9 parts whole blood) and platelet poor plasma (ppp) prepared by centrifugation (4500×g for 10 min). […]
Equal volumes (125 μl) of rat ppp and human prp are mixed together, ADP added, and the whole incubated (37° C.) and stirred (900 rpm) in a BioData platelet aggregometer. Aggregation is induced with ADP and agonist EC50 values calculated for human prp/rat ppp mixtures from animals dosed with test compound or vehicle. A mean concentration ratio (concentration of ADP required to cause a 50% aggregation response in human prp/rat ppp mixtures from animals dosed with antagonist, divided by the concentration of ADP to cause 50% aggregation in human prp/rat ppp mixtures from animals dosed with vehicle) is calculated at each time point.

Data set [4] concerns Alderley Park Wistar rats. The data set is described as follows: Repeated oral dose study in the rat (liver effects, tolerability). The class given is in vivo. As to conditions: rat, oral, 500 mg/kg/day, seven days. How it is done: The following is a description of a study of the effects of the (-)-(3R) compound of Example 246 and the corresponding (3RS)-racemic mixture of Example 203 in the rat. Four groups of ten Alderley Park Wistar rats (each group comprising 5 male and 5 female rats) were dose orally with the (3RS)-racemic mixture of Example 203 at daily doses of 0, 25, 100 or 500 mg/kg. Dosing was continued for a total of seven days. The animals were killed and examined.
Four groups of ten Alderley Park Wistar rats (each group comprising 5 male and 5 female rats) were dosed orally with the (-)-(3R) compound of Example 246 at daily doses of 0, 50, 250 and 1000 mg/kg. The highest dose was not tolerated. After four or five days, four of the animals from this group were killed. The remaining six animals were dosed at 500 mg/kg/day for the remainder of the study. Dosing was continued for a total of fourteen days. The animals were killed and examined.

The mark [5] stands for this setting: read-out: Test (a): pA2 value indicating potency of platelet aggregation inhibition (converted).
Setting [6] is: read-out: Test (b): pIC50 (-log(IC50)), 50% inhibition of biotinylated fibrinogen binding to GPIIb/IIIa (converted).

Structures are written as SMILES. Counter-ions that a name gives are not always drawn. Like-named read-outs stand apart in the source and are kept apart here.

This is an account of results in patent US5750754A, “Heterocyclic compounds” (Zeneca Limited, priority 1993, dated 1998).

T1 sequence (P08514 32-887 limits assumed): as the sequence (P08514 32-887 limits assumed) above
T1 sequence (P08514 891-1039 limits assumed): as the sequence (P08514 891-1039 limits assumed) above
T1 sequence (P05106 27-788): as the sequence (P05106 27-788) above

On to `COC(=O)COc1ccc(C(=O)CN2CCN(c3ccncc3)CC2)cc1` [Example 1, Methyl 4-[2-[4-(4-pyridyl)piperazin-1-yl]acetyl]phenoxyacetate], for which the Kb in data set [1] (setting [5]) was 158 to 316 nM. The IC50 in data set [2] (setting [6]) was 398 to 1580 nM. Further, the “duration of activity when dosed orally” value in data set [3] is reported as “up to 12 hours”.

As for `CC(COc1ccc(N2CCN(c3ccncc3)CC2)cc1)CC(=O)O` (racemic) [Example 203, RS 3-Methyl-4-[4-[4-(4-pyridyl)piperazin-1-yl]phenoxy]butyric acid trifluoroacetate], the “Test (a): pA2 value indicating potency of platelet aggregation inhibition” value in data set [1] stood at 7.2. For the same molecule, the “Test (b): pIC50 (-log(IC50)), 50% inhibition of biotinylated fibrinogen binding to GPIIb/IIIa” value in data set [2] was 8. In addition, the “adverse effects in the liver” value in data set [4] is given as “Adverse effects were noted in the livers of six of the group of ten rats”.

In data set [1] (Test (a): pA2 value indicating potency of platelet aggregation inhibition), `CN(CC(=O)O)C(=O)c1ccc(N2CCN(c3ccncc3)CC2)cc1` [Example 189, N-[4-[(4,4Pyridyl)piperazin-1-yl]benzoyl]-N-methylglycine, trifluoroacetate] showed a Kb of 1260 nM. In addition, the IC50 in data set [2] (Test (b): pIC50 (-log(IC50)), 50% inhibition of biotinylated fibrinogen binding to GPIIb/IIIa) is 316 nM.

Turning to `COC(=O)CNc1ccc(OC(=O)CC2CCN(c3ccncc3)CC2)cc1` [Example 172, 4-Methyloxycarbonylmethylamiophenyl [1-(4-pyridyl)piperidin4-yl]acetate], the Kb in data set [1] (setting [5]) was 6310 nM. Moreover, in data set [2] (setting [6]), the IC50 is 50100 nM.

As to `COC(=O)COc1cccc(C(=O)CN2CCN(c3ccncc3)CC2)c1` [Example 119], the Kb in data set [1] (setting [5]) is 31600 nM. In data set [2] (setting [6]), the IC50 was more than 100000 nM.

On to `CCCCS(=O)(=O)N[C@@H](Cc1ccc(OC2CCN(c3ccncc3)CC2)cc1)C(=O)O` [Example 38, 2-S-(n-Butylsulphonylamino)-3-[4-[1-(4-pyridyl)piperidin-4-yl]oxyphenyl]propionic acid], for which, in data set [1] (setting [5]), the Kb is 31.6 nM. Further, the IC50 in data set [2] (setting [6]) was 2 nM.

With `COCCNC(=O)CCCOc1ccc(N2CCN(c3ccncc3)CC2)cc1` [Example 201, N-2-Methoxyethyl-4-[4-[4-(4-pyridyl)piperazine-1-yl]phenoxy]butyramide, trifluoroacetate], in data set [1] (setting [5]), the Kb is 50100 nM. In addition, the IC50 in data set [2] (setting [6]) is more than 100000 nM.

For the molecule `O=C(O)CCc1ccc(C(=O)CN2CCN(c3ccncc3)CC2)cc1` [Example 12, 3-[4-[2-[4-(4-Pyridyl)piperazin-1-yl]acetyl]phenyl]propionic acid], the Kb in data set [1] (setting [5]) is 501 nM. Moreover, the IC50 in data set [2] (setting [6]) was 63.1 nM.

For `Cc1cc(C(=O)CN2CCN(c3ccncc3)CC2)ccc1OCC(=O)O` [Example 127, 4-[2-[4-(4-Pyridyl)piperazin-1-yl]acetyl]-2-methyl-phenoxyacetic acid, dihydrochloride], in data set [1] (setting [5]), the Kb is 1580 nM. Also, the IC50 in data set [2] (setting [6]) was 200 nM.

For the molecule `COC(=O)[C@H](Cc1ccc(OCCC2CCN(c3ccncc3)CC2)cc1)NS(=O)(=O)c1ccc(C)cc1` [Example 87, Methyl 2-S-(4-methylphenylsulphonylamino)-3-[4-[2-[1-(4-pyridyl)piperidin-4-yl]ethoxy]phenyl]propionate], the Kb in data set [1] (setting [5]) is 2510 nM. Further, the IC50 in data set [2] (setting [6]) was 63.1 nM.

In the case of `COC(=O)COc1ccc(C(=O)CN2CCN(c3ccncc3)CC2)c2ccccc12` [Example 117], the Kb in data set [1] (setting [5]) is 12600 nM. Also, in data set [2] (setting [6]), the IC50 was 3980 nM.

Consider `COC(=O)COc1ccc(C(=O)CN2CCN(c3ccncc3)CC2)c(C)c1` [Example 118, Methyl 4-[2-[4-(4-pyridyl)piperazin-1-yl]acetyl]-3-methylphenoxyacetate], for which, in data set [1] (setting [5]), the Kb is 200 nM. For the same molecule, the IC50 in data set [2] (setting [6]) was 398 nM.

As for `COC(=O)CC(NS(=O)(=O)c1ccc(C)cc1)c1ccc(OCC2CCN(c3ccncc3)CC2)cc1` (stereo not shown) [Example 99, Methyl 3-(4-methylphenylsulphonylamino)-3-[4-[1-(4-pyridyl)piperidin-4-yl]methoxyphenyl]propionate], the Kb in data set [1] (setting [5]) was 3980 nM. In addition, in data set [2] (setting [6]), the IC50 is 251 nM.

Turning to `O=C(O)COc1ccc(C(=O)NC2CCN(c3ccncc3)CC2)cc1` [Example 167, 4-[[1-(4-Pyridyl)piperidin-4-yl]aminocarbonyl]phenoxyacetic acid dihydrochloride], the Kb in data set [1] (setting [5]) is 251 nM. Besides, the IC50 in data set [2] (setting [6]) is 200 nM.

Regarding `COC(=O)COc1ccc(C(=O)CN2CCN(c3ccncc3)CC2)cc1OC` [Example 5, Methyl 4-[2-[4-(4-pyridyl)piperazin-1-yl]acetyl]-2-methoxyphenoxyacetate], the Kb in data set [1] (setting [5]) was 1000 nM. Also, the IC50 in data set [2] (setting [6]) was 1000 nM.

`COCCNC(=O)COC1CCN(C(=O)CN2CCN(c3ccncc3)CC2)CC1` [Example 107, N-2-Methoxyethyl 1-[2-[4-(4-pyridyl)piperazin-1-yl]acetyl]-piperidin-4-yloxyacetamide]: in data set [1] (setting [5]), the Kb is 31600 nM. For the same molecule, in data set [2] (setting [6]), the IC50 was more than 100000 nM.

With `O=C(O)COc1ccc(C(=O)CC2CCN(c3ccncc3)CC2)cc1` [Example 174, 4-[2-[1-(4Pyridyl)piperidin-4-yl]acetyl]phenoxyacetic acid hydrochloride], the Kb in data set [1] (setting [5]) is 158 to 398 nM. In addition, in data set [2] (setting [6]), the IC50 was 5.01 to 10 nM.

In the case of `O=C(O)COc1ccc(C(=O)CN2CCN(c3ccncc3)CC2)c(OCC(=O)O)c1` [Example 129, 2,2'-[4-[2-[4-(4-Pyridyl)piperazin-1-yl]acetyl]phenylene-1,3-dioxy]diaceticacid, dihydrochloride], the Kb in data set [1] (setting [5]) was 12.6 nM. For the same molecule, the IC50 in data set [2] (setting [6]) was 316 nM.

In the case of `O=C(O)COc1ccc2nccc(N3CCN(c4ccncc4)CC3)c2c1` [Example 71, 4-[[4-(4-Pyridyl)piperazin-1-yl]quinolin-6-yl]oxyacetic acid], the Kb in data set [1] (setting [5]) is 12600 nM. Besides, the IC50 in data set [2] (setting [6]) is 39800 nM.

For `CN(C)c1ccncc1COc1ccc(OCCCC(=O)O)cc1` [Example 113, 4-[4-[(4-Dimethylaminopyrid-3-yl)methoxy]phenoxy]butanoic acid], the Kb in data set [1] (setting [5]) was more than 100000 nM. Further, the IC50 in data set [2] (setting [6]) is 25100 nM.

Consider `O=C(O)CCC(CC1CCN(C(=O)CN2CCN(c3ccncc3)CC2)CC1)C(=O)O` (stereo not shown) [Example 112], for which the “Test (a): pA2 value indicating potency of platelet aggregation inhibition” value in data set [1] came out at 5.2. Besides, the “Test (b): pIC50 (-log(IC50)), 50% inhibition of biotinylated fibrinogen binding to GPIIb/IIIa” value in data set [2] is 5.5.

In the case of `CCOC(=O)c1ccc(C(=O)CN2CCN(c3ccncc3)CC2)cc1` [Example 131, Ethyl 4-[2-[4-(4-pyridyl)piperazin-1-yl]acetyl]benzoate], the Kb in data set [1] (setting [5]) is 25100 nM. The IC50 in data set [2] (setting [6]) was 31600 nM.

Turning to `O=C(O)CCc1ccc(OCC2CCN(c3ccncc3)CC2)cc1` [Example 162, 3-[4-[1-(4-Pyridyl)piperidin-4-yl]methoxyphenyl]propionic acid], in data set [1] (setting [5]), the Kb is 20000 nM. Besides, in data set [2] (setting [6]), the IC50 is 631 nM.

In the case of `COC(=O)COc1ccc(C(=O)CN2CCN(c3ccnc(C)c3)CC2)cc1` [Example 151, Methyl 4-[2-[4-(2-methylpyrid-4-yl)piperazin-1-yl]acetyl]phenoxyacetate], the Kb in data set [1] (setting [5]) was 631 nM. The IC50 in data set [2] (setting [6]) is 3980 nM.

As to `O=C(O)C1CCCC(Oc2ccc(N3CCN(c4ccncc4)CC3)cc2)C1` (stereo not shown) [Example 237, 3-[4-[4-(Pyridyl)piperazin-1-yl]phenoxy]cyclohexane carboxylic acid], in data set [1] (setting [5]), the Kb is 794 nM. Moreover, the IC50 in data set [2] (setting [6]) is 31.6 nM.
